Results from patent EP3212201B1, “NUCLEOSIDE KINASE INHIBITORS” (BCI Pharma, priority 2014, dated 2016).

Key:
Assay in all cases: FRET-based coupled-enzyme protein kinase inhibition assay
Type in all cases: biochemical
Conditions in all cases: compound at 10 µM, 1% DMSO
ACVR1B (ALK4) = molecular target: T1, ACVR1B (ALK4) (Homo sapiens, UniProt P36896)
T1 sequence (P36896 24-505): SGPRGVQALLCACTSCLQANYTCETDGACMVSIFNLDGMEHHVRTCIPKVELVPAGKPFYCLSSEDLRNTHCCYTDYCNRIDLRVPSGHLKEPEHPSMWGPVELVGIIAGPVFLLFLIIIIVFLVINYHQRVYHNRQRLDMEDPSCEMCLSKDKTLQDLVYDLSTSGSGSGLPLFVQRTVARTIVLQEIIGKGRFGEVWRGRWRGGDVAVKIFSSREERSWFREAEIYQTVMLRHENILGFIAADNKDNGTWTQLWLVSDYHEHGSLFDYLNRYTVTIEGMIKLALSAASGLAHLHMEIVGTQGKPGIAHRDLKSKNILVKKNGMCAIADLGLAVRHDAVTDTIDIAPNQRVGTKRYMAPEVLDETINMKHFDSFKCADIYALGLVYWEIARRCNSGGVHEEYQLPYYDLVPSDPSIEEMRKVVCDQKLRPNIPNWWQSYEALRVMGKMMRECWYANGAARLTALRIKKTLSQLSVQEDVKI
Experimental: (§1) A biochemical assay was then performed in order to measure the protein kinase inhibition. It employed a fluorescence-based coupled-enzyme format and was based on the differential sensitivity of phosphorylated and non-phosphorylated peptides to proteolytic cleavage.
(§2) Peptide substrates were labeled with two fluorophores. The two fluorohores used were coumarin (donor) and fluorecein (acceptor), and each of the peptides was bearing one at one end, and one at the other end, which made up fluorescence resonance energy transfer (FRET) pair peptides.
(§3) In a primary reaction, the FRET-peptides were submitted to a phosphorylation reaction, in which one of adenosine triphosphate (ATP)'s phosphate groups was transferred to the peptide in the presence of kinase. When kinase inhibition takes place, the peptide will not be phosphorylated. In a secondary reaction, both the phosphorylated FRET-peptides and the non-phosphorylated FRET-peptides were reacted with a development reagent. It has been observed that non-phosphorylated FRET-peptides were cleaved, whereas the phosphorylted FRET-peptide remained intact.
(§4) Cleavage disrupts FRET between the donor (i.e., coumarin) and acceptor (i.e., fluorescein) fluorophores on the FRET-peptide, whereas uncleaved, phosphorylated FRET-peptides maintain FRET. A ratiometric method, which calculates the Emission Ratio of donor emission to acceptor emission after excitation of the donor fluorophore at 400 nm, is used to quantitate reaction progress, as shown in the equation below. [formula]
(§5) A significant benefit of this ratiometric method for quantitating reaction progress is the elimination of well-to-well variations in FRET-peptide concentration and signal intensities. As a result, the assay yields very high Z'factor values (>0.7) at a low percent phosphorylation. Both cleaved and uncleaved FRET-peptides contribute to the fluorescence signals and therefore to the Emission Ratio. The extent of phosphorylation of the FRET-peptide can be calculated from the Emission Ratio. The Emission Ratio will remain low if the FRET-peptide is phosphorylated (i.e., no kinase inhibition) and will be high if the FRET-peptide is non-phosphorylated (i.e., kinase inhibition).
(§6) The Test Compounds were screened in 1% DMSO. For 10 point titrations, 3-fold serial dilutions were prepared from the starting concentration.
(§7) All Peptide/Kinase Mixtures were diluted to a 2X working concentration in the appropriate Kinase Buffer (50 mM HEPES pH 7.5, 0.01% BRIJ-35, 10 mM MgCl2, 1 mM […]).
(§8) All ATP Solutions were diluted to a 4X working concentration in Kinase Buffer. ATP Km apparent was previously determined using another assay.
(§9) 2.5 µL - 4X Test Compound or 100 nL 100X plus 2.4 µL kinase buffer were mixed together with 2. 5 µL - 2X Peptide/Kinase Mixture and 3. 2.5 µL - 4X ATP Solution.
(§10) The solution was plate-shaked for 30 seconds, then incubated 60 minutes at room temperature for kinase reaction. 5 µL of Development Reagent Solution were then added, followed by a 30-second plate shake and a 60-minute Development Reaction incubation at room temperature. The results were read on a fluorescence plate reader and the data was analyzed.
(§11) The compounds that show the highest Emission Ratio are the ones that also show the highest protein kinase inhibition properties.

AMPK A1/B1/G1 = AMPK A1/B1/G1 (Homo sapiens, UniProt Q13131)
Experimental: as §1, §2, §3, §4, §5, §6, §7, §8, §9, §10, §11

CDK1/cyclin B = CDK1/cyclin B (Homo sapiens, UniProt P06493)
Experimental: as §1, §2, §3, §4, §5, §6, §7, §8, §9, §10, §11

ERBB2 (HER2) = ERBB2 (HER2) (Homo sapiens, UniProt P04626)
Experimental: as §1, §2, §3, §4, §5, §6, §7, §8, §9, §10, §11

IRAK4 = molecular target: T2, IRAK4 (Homo sapiens, UniProt Q9NWZ3)
T2 sequence (Q9NWZ3 1-460): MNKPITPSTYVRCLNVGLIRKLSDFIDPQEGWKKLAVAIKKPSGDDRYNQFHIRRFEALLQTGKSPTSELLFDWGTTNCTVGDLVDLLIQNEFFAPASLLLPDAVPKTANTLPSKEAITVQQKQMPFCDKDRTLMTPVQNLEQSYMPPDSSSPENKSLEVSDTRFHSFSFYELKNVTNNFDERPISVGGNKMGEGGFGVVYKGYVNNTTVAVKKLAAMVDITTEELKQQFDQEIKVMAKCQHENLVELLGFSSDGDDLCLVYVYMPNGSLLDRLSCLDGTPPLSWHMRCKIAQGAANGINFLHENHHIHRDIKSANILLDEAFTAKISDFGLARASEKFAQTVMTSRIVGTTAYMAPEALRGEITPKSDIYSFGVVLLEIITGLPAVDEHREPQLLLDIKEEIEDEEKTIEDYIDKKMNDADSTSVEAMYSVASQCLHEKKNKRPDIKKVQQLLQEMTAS
Experimental: as §1, §2, §3, §4, §5, §6, §7, §8, §9, §10, §11

PAK4 = PAK4 (Homo sapiens, UniProt O96013)
Experimental: as §1, §2, §3, §4, §5, §6, §7, §8, §9, §10, §11

PHKG2 = molecular target: T3, PHKG2 (Homo sapiens, UniProt P15735)
T3 sequence (P15735 1-406): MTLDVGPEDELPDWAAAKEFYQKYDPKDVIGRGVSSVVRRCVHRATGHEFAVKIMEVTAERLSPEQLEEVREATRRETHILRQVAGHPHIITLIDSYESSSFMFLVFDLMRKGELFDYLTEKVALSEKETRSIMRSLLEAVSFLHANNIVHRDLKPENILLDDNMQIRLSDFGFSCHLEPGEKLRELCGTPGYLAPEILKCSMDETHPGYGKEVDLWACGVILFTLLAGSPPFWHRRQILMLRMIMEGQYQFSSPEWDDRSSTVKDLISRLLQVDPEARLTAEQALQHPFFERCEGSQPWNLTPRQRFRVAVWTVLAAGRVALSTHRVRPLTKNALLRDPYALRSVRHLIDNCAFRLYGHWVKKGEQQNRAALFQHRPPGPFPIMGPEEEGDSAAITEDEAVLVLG
Experimental: as §1, §2, §3, §4, §5, §6, §7, §8, §9, §10, §11

PLK1 = PLK1 (Homo sapiens, UniProt P53350)
Experimental: as §1, §2, §3, §4, §5, §6, §7, §8, §9, §10, §11

Sequence of AMPK A1/B1/G1 (Q13131 whole entry): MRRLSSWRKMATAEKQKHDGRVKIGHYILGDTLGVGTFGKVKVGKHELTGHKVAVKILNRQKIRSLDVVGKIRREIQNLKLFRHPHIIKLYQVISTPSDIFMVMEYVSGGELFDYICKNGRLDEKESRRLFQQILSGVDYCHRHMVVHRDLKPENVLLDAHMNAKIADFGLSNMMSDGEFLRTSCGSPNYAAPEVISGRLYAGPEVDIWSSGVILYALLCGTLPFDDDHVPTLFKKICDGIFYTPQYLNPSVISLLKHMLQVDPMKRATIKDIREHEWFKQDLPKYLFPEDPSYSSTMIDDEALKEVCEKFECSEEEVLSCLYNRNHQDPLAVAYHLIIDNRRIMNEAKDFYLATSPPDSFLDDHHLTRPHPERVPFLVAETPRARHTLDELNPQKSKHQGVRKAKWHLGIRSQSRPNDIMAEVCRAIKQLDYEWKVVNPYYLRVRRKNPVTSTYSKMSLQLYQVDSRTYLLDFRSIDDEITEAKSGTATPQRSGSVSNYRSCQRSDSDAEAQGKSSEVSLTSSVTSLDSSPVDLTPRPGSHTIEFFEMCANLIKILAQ
Sequence of AMPK A1/B1/G1 (Q9Y478 whole entry partner): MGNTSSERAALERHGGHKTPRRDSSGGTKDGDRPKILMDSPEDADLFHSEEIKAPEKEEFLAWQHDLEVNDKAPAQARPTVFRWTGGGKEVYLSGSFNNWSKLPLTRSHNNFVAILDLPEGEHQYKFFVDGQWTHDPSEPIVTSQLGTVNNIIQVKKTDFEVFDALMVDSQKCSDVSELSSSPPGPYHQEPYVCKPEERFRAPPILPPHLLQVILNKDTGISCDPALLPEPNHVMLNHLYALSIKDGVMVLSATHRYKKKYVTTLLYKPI
Sequence of AMPK A1/B1/G1 (P54619 whole entry partner): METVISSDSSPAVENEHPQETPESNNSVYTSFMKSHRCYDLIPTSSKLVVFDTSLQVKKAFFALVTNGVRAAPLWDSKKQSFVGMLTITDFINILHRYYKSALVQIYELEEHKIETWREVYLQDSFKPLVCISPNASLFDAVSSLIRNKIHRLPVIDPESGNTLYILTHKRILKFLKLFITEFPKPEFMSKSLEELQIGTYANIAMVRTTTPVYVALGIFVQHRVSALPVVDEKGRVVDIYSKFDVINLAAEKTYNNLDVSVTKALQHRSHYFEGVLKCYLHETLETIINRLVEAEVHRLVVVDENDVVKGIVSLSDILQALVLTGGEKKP
Sequence of PAK4 (O96013 whole entry, species assumed): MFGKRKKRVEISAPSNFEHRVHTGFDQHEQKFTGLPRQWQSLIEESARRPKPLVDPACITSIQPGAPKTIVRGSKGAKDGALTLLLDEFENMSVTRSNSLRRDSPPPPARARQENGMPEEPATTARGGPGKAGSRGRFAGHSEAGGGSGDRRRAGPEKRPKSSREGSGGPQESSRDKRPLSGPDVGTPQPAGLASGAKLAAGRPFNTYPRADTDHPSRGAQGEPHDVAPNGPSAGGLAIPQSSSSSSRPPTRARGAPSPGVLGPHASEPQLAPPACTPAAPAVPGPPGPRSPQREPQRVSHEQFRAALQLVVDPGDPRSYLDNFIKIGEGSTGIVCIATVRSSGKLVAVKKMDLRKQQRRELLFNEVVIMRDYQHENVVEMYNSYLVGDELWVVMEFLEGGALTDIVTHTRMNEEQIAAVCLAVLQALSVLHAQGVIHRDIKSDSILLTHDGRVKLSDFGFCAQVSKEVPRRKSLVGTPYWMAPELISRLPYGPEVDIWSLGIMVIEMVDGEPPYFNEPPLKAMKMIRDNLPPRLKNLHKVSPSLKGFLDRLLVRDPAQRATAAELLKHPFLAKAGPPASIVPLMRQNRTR
Sequence of PLK1 (P53350 whole entry, species assumed): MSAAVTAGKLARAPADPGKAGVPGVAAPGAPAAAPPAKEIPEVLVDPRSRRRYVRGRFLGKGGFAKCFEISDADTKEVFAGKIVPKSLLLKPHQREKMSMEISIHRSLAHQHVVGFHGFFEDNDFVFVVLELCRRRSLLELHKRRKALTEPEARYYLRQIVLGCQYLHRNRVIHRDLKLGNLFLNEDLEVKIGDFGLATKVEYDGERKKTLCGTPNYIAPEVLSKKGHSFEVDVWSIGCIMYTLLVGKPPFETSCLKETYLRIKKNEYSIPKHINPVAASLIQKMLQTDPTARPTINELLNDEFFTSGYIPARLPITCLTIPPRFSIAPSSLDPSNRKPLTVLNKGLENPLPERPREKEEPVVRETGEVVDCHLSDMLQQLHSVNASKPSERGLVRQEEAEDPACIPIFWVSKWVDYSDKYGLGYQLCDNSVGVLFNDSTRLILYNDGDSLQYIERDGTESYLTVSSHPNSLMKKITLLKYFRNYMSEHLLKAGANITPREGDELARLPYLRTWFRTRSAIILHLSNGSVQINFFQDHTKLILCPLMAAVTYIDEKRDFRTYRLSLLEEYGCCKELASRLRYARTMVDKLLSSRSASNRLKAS
Sequence of CDK1/cyclin B (P06493 whole entry, species assumed): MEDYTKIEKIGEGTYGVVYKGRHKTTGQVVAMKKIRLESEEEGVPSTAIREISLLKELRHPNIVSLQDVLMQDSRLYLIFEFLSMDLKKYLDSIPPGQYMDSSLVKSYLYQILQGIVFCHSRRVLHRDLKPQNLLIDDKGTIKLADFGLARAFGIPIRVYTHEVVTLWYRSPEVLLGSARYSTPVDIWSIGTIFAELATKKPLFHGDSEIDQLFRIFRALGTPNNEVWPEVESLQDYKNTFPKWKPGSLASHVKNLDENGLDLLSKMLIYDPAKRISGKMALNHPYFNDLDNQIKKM
Sequence of CDK1/cyclin B (P14635 whole entry partner, species assumed): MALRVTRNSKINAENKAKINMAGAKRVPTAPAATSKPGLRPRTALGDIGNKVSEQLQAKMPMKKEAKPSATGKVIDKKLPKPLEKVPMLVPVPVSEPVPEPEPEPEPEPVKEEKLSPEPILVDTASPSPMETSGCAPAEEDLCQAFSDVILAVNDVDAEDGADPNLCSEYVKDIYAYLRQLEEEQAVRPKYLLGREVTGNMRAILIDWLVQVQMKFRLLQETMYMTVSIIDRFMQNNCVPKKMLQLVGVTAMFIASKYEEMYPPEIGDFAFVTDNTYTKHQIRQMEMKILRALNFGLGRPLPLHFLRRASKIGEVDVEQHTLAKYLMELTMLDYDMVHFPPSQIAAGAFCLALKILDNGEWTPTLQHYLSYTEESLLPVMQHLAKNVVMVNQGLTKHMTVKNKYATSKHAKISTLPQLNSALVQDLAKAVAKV
Sequence of ERBB2 (HER2) (P04626 23-1255, species assumed): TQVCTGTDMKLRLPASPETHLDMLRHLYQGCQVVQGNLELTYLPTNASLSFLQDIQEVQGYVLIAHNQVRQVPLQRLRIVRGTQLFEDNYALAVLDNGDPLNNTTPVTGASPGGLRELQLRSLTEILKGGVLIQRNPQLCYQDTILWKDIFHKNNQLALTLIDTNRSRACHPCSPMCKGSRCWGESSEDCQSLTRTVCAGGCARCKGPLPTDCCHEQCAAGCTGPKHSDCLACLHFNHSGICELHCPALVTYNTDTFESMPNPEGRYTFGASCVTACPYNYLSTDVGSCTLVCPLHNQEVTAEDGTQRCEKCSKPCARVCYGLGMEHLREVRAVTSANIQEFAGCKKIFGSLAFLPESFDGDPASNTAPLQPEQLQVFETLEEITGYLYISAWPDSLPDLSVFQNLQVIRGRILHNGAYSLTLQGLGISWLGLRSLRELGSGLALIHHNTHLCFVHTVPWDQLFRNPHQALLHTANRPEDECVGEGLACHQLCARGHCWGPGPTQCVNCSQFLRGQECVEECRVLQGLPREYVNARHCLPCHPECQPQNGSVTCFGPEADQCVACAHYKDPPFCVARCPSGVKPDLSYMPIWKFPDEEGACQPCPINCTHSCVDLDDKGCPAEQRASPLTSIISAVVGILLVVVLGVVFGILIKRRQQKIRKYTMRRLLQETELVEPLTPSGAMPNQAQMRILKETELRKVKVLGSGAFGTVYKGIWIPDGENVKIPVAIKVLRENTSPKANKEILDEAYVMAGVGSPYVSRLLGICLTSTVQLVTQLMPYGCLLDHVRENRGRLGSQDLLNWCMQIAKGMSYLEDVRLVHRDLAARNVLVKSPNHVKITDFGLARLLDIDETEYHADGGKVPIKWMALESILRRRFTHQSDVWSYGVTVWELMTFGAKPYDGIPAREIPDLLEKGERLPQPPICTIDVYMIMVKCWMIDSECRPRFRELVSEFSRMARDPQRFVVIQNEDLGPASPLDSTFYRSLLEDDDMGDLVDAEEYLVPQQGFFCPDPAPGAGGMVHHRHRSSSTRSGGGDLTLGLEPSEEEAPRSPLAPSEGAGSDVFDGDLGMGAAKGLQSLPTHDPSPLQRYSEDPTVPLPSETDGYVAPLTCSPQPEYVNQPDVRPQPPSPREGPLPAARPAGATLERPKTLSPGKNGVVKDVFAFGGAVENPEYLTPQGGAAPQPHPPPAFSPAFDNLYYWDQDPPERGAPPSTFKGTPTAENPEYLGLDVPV

| Compound | inhibition at 10 µM (ACVR1B (ALK4)) | inhibition at 10 µM (AMPK A1/B1/G1) | inhibition at 10 µM (CDK1/cyclin B) | inhibition at 10 µM (ERBB2 (HER2)) | inhibition at 10 µM (IRAK4) | inhibition at 10 µM (PAK4) | inhibition at 10 µM (PHKG2) | inhibition at 10 µM (PLK1) |
| --- | --- | --- | --- | --- | --- | --- | --- | --- |
| Nc1ncnc2c1ncn2[C@@H]1O[C@H](COC(=O)NCCCc2nc3ccccc3[nH]2)[C@@H](O)[C@H]1O [Compound C1] | 2% | 17% | -2% | 5% | -2% | 15% | -3% | -8% |
| C[C@@H](NC(=O)OC[C@H]1O[C@@H](n2cnc3c(N)ncnc32)[C@H](O)[C@@H]1O)c1ccc(Cl)cc1 [Compound C4] | 1% | 17% | 8% | 2% | 3% | 12% | -2% | -3% |
| Nc1ncnc2c1ncn2[C@@H]1O[C@H](COC(=O)NC[C@H](O)CO)[C@@H](O)[C@H]1O [Compound C8] | 0% | 17% | 4% | -7% | -8% | 19% | -3% | -1% |
| Nc1ncnc2c1ncn2[C@@H]1O[C@H](COC(=O)N2CCC[C@H]2CO)[C@@H](O)[C@H]1O [Compound C9] | -5% | 4% | 3% | -19% | -2% | 1% | -4% | -1% |
| Nc1ncnc2c1ncn2[C@@H]1O[C@H](COC(=O)N[C@@H]2CCN(Cc3ccccc3)C2)[C@@H](O)[C@H]1O [Compound C10] | 4% | 11% | 11% | -5% | 6% | 14% | 0% | -13% |
| Nc1ncnc2c1ncn2[C@@H]1O[C@H](COC(=O)N2CCN(Cc3ccccc3)CC2CO)[C@@H](O)[C@H]1O (stereo partly shown) [Compound C13] | 7% | 6% | 9% | 3% | 13% | 7% | 0% | -12% |
| CC(C)N1CCC(NC(=O)OC[C@H]2O[C@@H](n3cnc4c(N)ncnc43)[C@H](O)[C@@H]2O)CC1 [Compound C19] | 6% | 5% | 7% | -7% | -3% | 3% | -3% | -6% |
| Nc1ncnc2c1ncn2[C@@H]1O[C@H](COC(=O)NCCN2CCCC2=O)[C@@H](O)[C@H]1O [Compound C22] | 3% | 4% | 7% | -9% | 1% | 7% | -6% | -5% |
| Nc1ncnc2c1ncn2[C@@H]1O[C@H](COC(=O)N2CCN(CCc3ccccc3)CC2)[C@@H](O)[C@H]1O [Compound C26] | 0% | 3% | 8% | 8% | 2% | 6% | -1% | -8% |
| CN1CCN(CCNC(=O)OC[C@H]2O[C@@H](n3cnc4c(N)ncnc43)[C@H](O)[C@@H]2O)CC1 [Compound C46] | 6% | 4% | 7% | -14% | 7% | 4% | 0% | -5% |
| Nc1ncnc2c1ncn2[C@@H]1O[C@H](COC(=O)N2CCC(Cc3ccc(F)cc3)C2)[C@@H](O)[C@H]1O (stereo partly shown) [Compound C66] | 1% | 14% | 11% | 11% | -2% | 10% | -2% | -5% |
